Values after ≈ are worked out from the molar mass of the structure shown.
Key:
Assay in all cases: in vitro antibacterial evaluation, MIC by broth dilution
Assay type in all cases: cell-based
Streptococcus sp. = conditions: broth dilution, 18 hours at 35° C.
Summary of the method: (§1)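 Read-out: the lowest concentration at which the test strain fails to grow. Serial dilutions (64-0.06 μg/mL) in Muller-Hinton II […], 5×10^5 CFU/mL inoculum, NCCLS M7-A2 procedure.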

Staphylococcus sp. = conditions: broth dilution, 18 hours at 35° C.; for MIC Staphylococcus aureus (GC 1131): strain GC 1131
Summary of the method: as §1

Enterococcus sp. = conditions: broth dilution, 18 hours at 35° C.
Summary of the method: as §1

Escherichia coli = test system: Escherichia coli
Summary of the method: as §1

MIC Streptococcus agalactiae (GC 4564) (Streptococcus sp.; Streptococcus agalactiae (GC 4564)): 0.12 µg/mL (≈ 0.0846 µM)
MIC Streptococcus pneumoniae (ATCC 6301) (Streptococcus sp.; Streptococcus pneumoniae (ATCC 6301)): <0.06 µg/mL
MIC Streptococcus pneumoniae (GC 1894) (Streptococcus sp.; Streptococcus pneumoniae (GC 1894)): <0.06 µg/mL
MIC Streptococcus pneumoniae (GC 4565) (Streptococcus sp.; Streptococcus pneumoniae (GC 4565)): <0.06 µg/mL
MIC Streptococcus pyogenes (GC 4563) (Streptococcus sp.; Streptococcus pyogenes (GC 4563)): 0.25 µg/mL (≈ 0.176 µM)
MIC Streptococcus pneumoniae (ATCC 6301) (Streptococcus sp.; strain ATCC 6301): <0.06 µg/mL
MIC Streptococcus pneumoniae (GC 1894) (Streptococcus sp.; strain GC 1894): <0.06 µg/mL
MIC Streptococcus pyogenes (GC 4563) (Streptococcus sp.; strain GC 4563): 0.25 µg/mL (≈ 0.176 µM)
MIC Streptococcus agalactiae (GC 4564) (Streptococcus sp.; strain GC 4564): 0.12 µg/mL (≈ 0.0846 µM)
MIC Streptococcus pneumoniae (GC 4565) (Streptococcus sp.; strain GC 4565): <0.06 µg/mL
MIC Staphylococcus aureus (GC 1131) (Staphylococcus sp.; inoculum 5×10^5 CFU/mL): 2 µg/mL (≈ 1.41 µM)
MIC Staphylococcus aureus (ATCC 29213) (Staphylococcus sp.; strain ATCC 29213): 2 µg/mL (≈ 1.41 µM)
MIC Staphylococcus aureus (GC 1131) (Staphylococcus sp.): 2 µg/mL (≈ 1.41 µM)
MIC Staphylococcus aureus (GC 3051) (Staphylococcus sp.; strain GC 3051): 2 µg/mL (≈ 1.41 µM)
MIC Staphylococcus aureus (GC 3053) (Staphylococcus sp.; strain GC 3053): 2 µg/mL (≈ 1.41 µM)
MIC Staphylococcus aureus (GC 4541) (Staphylococcus sp.; strain GC 4541): 2 µg/mL (≈ 1.41 µM)
MIC Staphylococcus aureus (GC 4542) (Staphylococcus sp.; strain GC 4542): 2 µg/mL (≈ 1.41 µM)
MIC Staphylococcus aureus-SMITH (GC 4543) (Staphylococcus sp.; strain GC 4543): 1 µg/mL (≈ 0.705 µM)
MIC Staphylococcus aureus (GC 4544) (Staphylococcus sp.; strain GC 4544): 2 µg/mL (≈ 1.41 µM)
MIC Staphylococcus aureus (GC 4545) (Staphylococcus sp.; strain GC 4545): 2 µg/mL (≈ 1.41 µM)
MIC Coagulase Negative Staphylococcus (GC 4547) (Staphylococcus sp.; strain GC 4547): 4 µg/mL (≈ 2.82 µM)
MIC Coagulase Negative Staphylococcus (GC 4548) (Staphylococcus sp.; strain GC 4548): 1 µg/mL (≈ 0.705 µM)
MIC Coagulase Negative Staphylococcus (GC 4549) (Staphylococcus sp.; strain GC 4549): 1 µg/mL (≈ 0.705 µM)
MIC Coagulase Negative Staphylococcus (GC 4551) (Staphylococcus sp.; strain GC 4551): 2 µg/mL (≈ 1.41 µM)
MIC Coagulase Negative Staphylococcus (GC 6257) (Staphylococcus sp.; strain GC 6257): 2 µg/mL (≈ 1.41 µM)
MIC Staphylococcus aureus-SMITH (GC 4543) (Staphylococcus sp.; strain SMITH GC 4543): 1 µg/mL (≈ 0.705 µM)
MIC Enterococcus avium (GC 4558) (Enterococcus sp.; Enterococcus avium (GC 4558)): 4 µg/mL (≈ 2.82 µM)
MIC Enterococcus faecalis (ATCC 29212) (Enterococcus sp.; Enterococcus faecalis (ATCC 29212)): 4 µg/mL (≈ 2.82 µM)
MIC Enterococcus faecalis (GC 2242) (Enterococcus sp.; Enterococcus faecalis (GC 2242)): 4 µg/mL (≈ 2.82 µM)
MIC Enterococcus faecalis (GC 2691) (Enterococcus sp.; Enterococcus faecalis (GC 2691)): 8 µg/mL (≈ 5.64 µM)
MIC Enterococcus faecalis (GC 3059) (Enterococcus sp.; Enterococcus faecalis (GC 3059)): 4 µg/mL (≈ 2.82 µM)
MIC Enterococcus faecalis (GC 4552) (Enterococcus sp.; Enterococcus faecalis (GC 4552)): 4 µg/mL (≈ 2.82 µM)
MIC Enterococcus faecalis (GC 4553) (Enterococcus sp.; Enterococcus faecalis (GC 4553)): 8 µg/mL (≈ 5.64 µM)
MIC Enterococcus faecalis (GC 4554) (Enterococcus sp.; Enterococcus faecalis (GC 4554)): 8 µg/mL (≈ 5.64 µM)
MIC Enterococcus faecalis (GC 6189) (Enterococcus sp.; Enterococcus faecalis (GC 6189)): 4 µg/mL (≈ 2.82 µM)
MIC Enterococcus faecium (GC 2243) (Enterococcus sp.; Enterococcus faecium (GC 2243)): 4 µg/mL (≈ 2.82 µM)
MIC Enterococcus faecium (GC 4556) (Enterococcus sp.; Enterococcus faecium (GC 4556)): 8 µg/mL (≈ 5.64 µM)
MIC Enterococcus faecium (GC 4557) (Enterococcus sp.; Enterococcus faecium (GC 4557)): 2 µg/mL (≈ 1.41 µM)
MIC Enterococcus faecalis (ATCC 29212) (Enterococcus sp.; strain ATCC 29212): 4 µg/mL (≈ 2.82 µM)
MIC Enterococcus faecalis (GC 2242) (Enterococcus sp.; strain GC 2242): 4 µg/mL (≈ 2.82 µM)
MIC Enterococcus faecium (GC 2243) (Enterococcus sp.; strain GC 2243): 4 µg/mL (≈ 2.82 µM)
MIC Enterococcus faecalis (GC 2691) (Enterococcus sp.; strain GC 2691): 8 µg/mL (≈ 5.64 µM)
MIC Enterococcus faecalis (GC 3059) (Enterococcus sp.; strain GC 3059): 4 µg/mL (≈ 2.82 µM)
MIC Enterococcus faecalis (GC 4552) (Enterococcus sp.; strain GC 4552): 4 µg/mL (≈ 2.82 µM)
MIC Enterococcus faecalis (GC 4553) (Enterococcus sp.; strain GC 4553): 8 µg/mL (≈ 5.64 µM)
MIC Enterococcus faecalis (GC 4554) (Enterococcus sp.; strain GC 4554): 8 µg/mL (≈ 5.64 µM)
MIC Enterococcus faecium (GC 4556) (Enterococcus sp.; strain GC 4556): 8 µg/mL (≈ 5.64 µM)
MIC Enterococcus faecium (GC 4557) (Enterococcus sp.; strain GC 4557): 2 µg/mL (≈ 1.41 µM)
MIC Enterococcus avium (GC 4558) (Enterococcus sp.; strain GC 4558): 4 µg/mL (≈ 2.82 µM)
MIC Enterococcus faecalis (GC 6189) (Enterococcus sp.; strain GC 6189): 4 µg/mL (≈ 2.82 µM)
MIC Escherichia coli (ATCC 25922) (Escherichia coli; strain ATCC 25922, 18 hours at 35° C.): 64 µg/mL (≈ 45.1 µM)
MIC Escherichia coli (GC 4559) (Escherichia coli; strain GC 4559, 18 hours at 35° C.): 64 µg/mL (≈ 45.1 µM)
MIC Escherichia coli (GC 4560) (Escherichia coli; strain GC 4560, 18 hours at 35° C.): 0.5 µg/mL (≈ 0.353 µM)
SMILES: CC(c1ccccc1)C1NC(=O)CNC(=O)C(CO)NC(=O)C(C(O)C2CNC(=N)N2C2OC(CO)C(O)C(O)C2O)NC(=O)C(C(O)C2CNC(=N)N2)NC(=O)C(Cc2ccc(OC3OC(CO)C(OC4OC5COC(c6cccc(Cl)c6)OC5C(O)C4O)C(O)C3O)cc2)NC1=O (stereo not drawn) [Example 138, Cyclo[glycyl-β-methylphenylalanyl-O-[4-O-[4,6-O-(3-chlorobenzylidene)hexopyranosyl]-hexopyranosyl]tyrosyl-3-(2-iminoimidazolidin-4-yl)seryl-3-(3-hexopyranosyl-2-iminoimidazolidin-4-yl)serylseryl]]
MIC Staphylococcus haemolyticus (GC 4546) (Staphylococcus sp.; strain GC 4546): 2 µg/mL (≈ 1.41 µM)

Source: patent publication US6914045B2, “Glycopeptide antibiotics” (Wyeth Holdings Corporation, priority 2001, dated 2005)
